Data published in PubChem BioAssay AID1963854 (Molecular Pharmacology Branch, DTP, NCI, 2024).

Test system: 186277-243-T-J2-PDC complex spheroid viability
Test: Anticancer human tumor 186277-243-T-J2-PDC patient-derived colon adenocarcinoma cell line growth inhibition [POLQ]
Conditions: for IC50: curve of first compound; for viability, T/C: stronger effect = lower value
How it was run: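 Three-cell-type spheroids modelling solid tumor plus stroma served as the readout system; POL inhibitors were tested individually and in combination, concentration ranges set by clinical Cmax where known.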

[1] = second compound 0.0316 µM, first compound 0.0316 µM
[2] = second compound 0.0316 µM, first compound 0.1 µM
[3] = second compound 0.0316 µM, first compound 0.316 µM
[4] = second compound 0.0316 µM, first compound 1 µM
[5] = second compound 0.0316 µM, first compound 3.16 µM
[6] = second compound 0.0316 µM, first compound 10 µM
[7] = second compound 0.1 µM, first compound 0.0316 µM
[8] = second compound 0.1 µM, first compound 0.1 µM
[9] = second compound 0.1 µM, first compound 0.316 µM
[10] = second compound 0.1 µM, first compound 1 µM
[11] = second compound 0.1 µM, first compound 3.16 µM
[12] = second compound 0.1 µM, first compound 10 µM
[13] = second compound 0.316 µM, first compound 0.0316 µM
[14] = second compound 0.316 µM, first compound 0.1 µM
[15] = second compound 0.316 µM, first compound 0.316 µM
[16] = second compound 0.316 µM, first compound 1 µM
[17] = second compound 0.316 µM, first compound 3.16 µM
[18] = second compound 0.316 µM, first compound 10 µM
[19] = second compound 1 µM, first compound 0.0316 µM
[20] = second compound 1 µM, first compound 0.1 µM
[21] = second compound 1 µM, first compound 0.316 µM
[22] = second compound 1 µM, first compound 1 µM
[23] = second compound 1 µM, first compound 3.16 µM
[24] = second compound 1 µM, first compound 10 µM
[25] = second compound 3.16 µM, first compound 0.0316 µM
[26] = second compound 3.16 µM, first compound 0.1 µM
[27] = second compound 3.16 µM, first compound 0.316 µM
[28] = second compound 3.16 µM, first compound 1 µM
[29] = second compound 3.16 µM, first compound 3.16 µM
[30] = second compound 3.16 µM, first compound 10 µM
[31] = second compound 10 µM, first compound 0.0316 µM
[32] = second compound 10 µM, first compound 0.1 µM
[33] = second compound 10 µM, first compound 0.316 µM
[34] = second compound 10 µM, first compound 1 µM
[35] = second compound 10 µM, first compound 3.16 µM
[36] = second compound 10 µM, first compound 10 µM
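Note: spheroids exposed to compounds for seven days.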
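Throughout, for viability, T/C: 100% = DMSO vehicle control viability.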

SMILES: O=C(Nc1ccc(O)c(NS(=O)(=O)c2ccc(F)cc2)c1)c1ccc(-c2ccccc2)cc1 + Nc1ccc(C#CCN(C(=O)Cc2ncc(C(F)(F)F)cc2C(F)(F)F)c2ccc(F)cc2)nn1
- IC50 (second compound 0.0316 µM): > 10 µM
- IC50 (second compound 0.1 µM): > 10 µM
- IC50 (second compound 0.316 µM): > 10 µM
- IC50 (second compound 1 µM): > 10 µM
- IC50 (second compound 3.16 µM): > 10 µM
- IC50 (second compound 10 µM): > 10 µM
- viability, T/C [1]: 117%
- viability, T/C [2]: 91%
- viability, T/C [3]: 92.4%
- viability, T/C [4]: 89.4%
- viability, T/C [5]: 99.8%
- viability, T/C [6]: 110%
- viability, T/C [7]: 95.5%
- viability, T/C [8]: 88.8%
- viability, T/C [9]: 96.7%
- viability, T/C [10]: 86.5%
- viability, T/C [11]: 89.9%
- viability, T/C [12]: 98%
- viability, T/C [13]: 97.6%
- viability, T/C [14]: 96%
- viability, T/C [15]: 97.5%
- viability, T/C [16]: 96.7%
- viability, T/C [17]: 101%
- viability, T/C [18]: 107%
- viability, T/C [19]: 101%
- viability, T/C [20]: 96.3%
- viability, T/C [21]: 92.3%
- viability, T/C [22]: 81.9%
- viability, T/C [23]: 103%
- viability, T/C [24]: 99.9%
- viability, T/C [25]: 96.3%
- viability, T/C [26]: 80.8%
- viability, T/C [27]: 104%
- viability, T/C [28]: 96.7%
- viability, T/C [29]: 103%
- viability, T/C [30]: 95.9%
- viability, T/C [31]: 103%
- viability, T/C [32]: 87.5%
- viability, T/C [33]: 91.2%
- viability, T/C [34]: 104%
- viability, T/C [35]: 97.2%
- viability, T/C [36]: 99.2%

SMILES: C=CC(=O)N1CCN(c2nc(=O)n(-c3c(C)ccnc3C(C)C)c3nc(-c4c(O)cccc4F)c(F)cc23)C(C)C1 (stereo not drawn) + Cc1cccc(N(C)C(=O)C2C(O)CCN2c2nc(C)cc(C(F)(F)F)c2C#N)c1
- IC50 (second compound 0.0316 µM): > 10 µM
- IC50 (second compound 0.1 µM): > 10 µM
- IC50 (second compound 0.316 µM): > 10 µM
- IC50 (second compound 1 µM): > 10 µM
- IC50 (second compound 3.16 µM): > 10 µM
- IC50 (second compound 10 µM): > 10 µM
- viability, T/C [1]: 92.8%
- viability, T/C [2]: 101%
- viability, T/C [3]: 82.2%
- viability, T/C [4]: 90.9%
- viability, T/C [5]: 99.5%
- viability, T/C [6]: 103%
- viability, T/C [7]: 106%
- viability, T/C [8]: 98.6%
- viability, T/C [9]: 103%
- viability, T/C [10]: 84.7%
- viability, T/C [11]: 107%
- viability, T/C [12]: 104%
- viability, T/C [13]: 90.4%
- viability, T/C [14]: 91.5%
- viability, T/C [15]: 102%
- viability, T/C [16]: 99.5%
- viability, T/C [17]: 112%
- viability, T/C [18]: 102%
- viability, T/C [19]: 99.8%
- viability, T/C [20]: 108%
- viability, T/C [21]: 98.6%
- viability, T/C [22]: 96.2%
- viability, T/C [23]: 108%
- viability, T/C [24]: 101%
- viability, T/C [25]: 106%
- viability, T/C [26]: 99%
- viability, T/C [27]: 84%
- viability, T/C [28]: 106%
- viability, T/C [29]: 111%
- viability, T/C [30]: 103%
- viability, T/C [31]: 97.9%
- viability, T/C [32]: 106%
- viability, T/C [33]: 108%
- viability, T/C [34]: 102%
- viability, T/C [35]: 97.3%
- viability, T/C [36]: 95.9%

SMILES: COc1cccc2c1C(=O)c1c(O)c3c(c(O)c1C2=O)CC(O)(C(=O)CO)CC3OC1CC(N)C(O)C(C)O1 (stereo not drawn) + Cc1cccc(N(C)C(=O)C2C(O)CCN2c2nc(C)cc(C(F)(F)F)c2C#N)c1
- IC50 (second compound 0.0316 µM): 0.106 µM
- IC50 (second compound 0.1 µM): 0.116 µM
- IC50 (second compound 0.316 µM): 0.114 µM
- IC50 (second compound 1 µM): 0.12 µM
- IC50 (second compound 3.16 µM): 0.119 µM
- IC50 (second compound 10 µM): 0.0766 µM
- viability, T/C [1]: 104%
- viability, T/C [2]: 52.1%
- viability, T/C [3]: 10.2%
- viability, T/C [4]: 0.23%
- viability, T/C [5]: 0.15%
- viability, T/C [6]: 0.39%
- viability, T/C [7]: 107%
- viability, T/C [8]: 55.6%
- viability, T/C [9]: 11.1%
- viability, T/C [10]: 0.24%
- viability, T/C [11]: 0.11%
- viability, T/C [12]: 0.45%
- viability, T/C [13]: 96.9%
- viability, T/C [14]: 55.2%
- viability, T/C [15]: 10.3%
- viability, T/C [16]: 0.56%
- viability, T/C [17]: 0.14%
- viability, T/C [18]: 0.43%
- viability, T/C [19]: 95.7%
- viability, T/C [20]: 57%
- viability, T/C [21]: 12%
- viability, T/C [22]: 0.45%
- viability, T/C [23]: 0.16%
- viability, T/C [24]: 0.7%
- viability, T/C [25]: 89.3%
- viability, T/C [26]: 57.4%
- viability, T/C [27]: 9.06%
- viability, T/C [28]: 0.16%
- viability, T/C [29]: 1.06%
- viability, T/C [30]: 0.34%
- viability, T/C [31]: 76.3%
- viability, T/C [32]: 42.1%
- viability, T/C [33]: 3.48%
- viability, T/C [34]: 0.3%
- viability, T/C [35]: 0.5%
- viability, T/C [36]: 0.36%

SMILES: CCCS(=O)(=O)Nc1ccc(F)c(C(=O)c2c[nH]c3ncc(-c4ccc(Cl)cc4)cc23)c1F + Nc1ccc(C#CCN(C(=O)Cc2ncc(C(F)(F)F)cc2C(F)(F)F)c2ccc(F)cc2)nn1
- IC50 (second compound 0.0316 µM): > 10 µM
- IC50 (second compound 0.1 µM): > 10 µM
- IC50 (second compound 0.316 µM): > 10 µM
- IC50 (second compound 1 µM): > 10 µM
- IC50 (second compound 3.16 µM): > 10 µM
- IC50 (second compound 10 µM): 9.97 µM
- viability, T/C [1]: 89.6%
- viability, T/C [2]: 100%
- viability, T/C [3]: 88.9%
- viability, T/C [4]: 79.8%
- viability, T/C [5]: 113%
- viability, T/C [6]: 66.3%
- viability, T/C [7]: 91.5%
- viability, T/C [8]: 87.7%
- viability, T/C [9]: 86.8%
- viability, T/C [10]: 82.9%
- viability, T/C [11]: 91.5%
- viability, T/C [12]: 60.9%
- viability, T/C [13]: 89.7%
- viability, T/C [14]: 90.5%
- viability, T/C [15]: 89%
- viability, T/C [16]: 94.3%
- viability, T/C [17]: 85.8%
- viability, T/C [18]: 57.8%
- viability, T/C [19]: 100%
- viability, T/C [20]: 91.2%
- viability, T/C [21]: 109%
- viability, T/C [22]: 94.4%
- viability, T/C [23]: 87.8%
- viability, T/C [24]: 62.8%
- viability, T/C [25]: 120%
- viability, T/C [26]: 89.5%
- viability, T/C [27]: 85%
- viability, T/C [28]: 93.4%
- viability, T/C [29]: 88%
- viability, T/C [30]: 63.6%
- viability, T/C [31]: 108%
- viability, T/C [32]: 97.7%
- viability, T/C [33]: 85.7%
- viability, T/C [34]: 95.9%
- viability, T/C [35]: 85.1%
- viability, T/C [36]: 48.8%
